ChEMBL document CHEMBL1127385, “Synthesis and diuretic activity of alkyl- and arylguanidine analogs of N,N'-dicyclohexyl-4-morpholinecarboxamidine in rats and dogs” (J Med Chem, 1994)

Experiments:
Rattus norvegicus [1] = assay: Total electrolytic excretion of sodium in urine of rats after peroral administration of 1.13 uM/Kg of drug; assay type: ADME, organism-based; details: in vivo, po
Rattus norvegicus [2] = assay: Total electrolytic excretion of potassium in urine of rats after peroral administration of 11.3 uM/Kg of drug; assay type: ADME, organism-based; details: in vivo, po
Canis familiaris [3] = assay: Total electrolytic excretion of chlorine in urine of dogs after peroral administration of 3.76 uM/Kg of drug; assay type: ADME, organism-based, Canis lupus familiaris; details: dog, in vivo, po
Canis familiaris [4] = assay: Ratio of Total electrolytic excretion of sodium and potassium in urine of dogs after peroral administration of 1.13 uM/Kg of drug; assay type: ADME, organism-based, Canis lupus familiaris; details: dog, in vivo, po
Rattus norvegicus [5] = assay: Tested for the diuretic activity by measuring the urinary volume after peroral administering 113 uM/Kg of drug in rats; assay type: ADME, organism-based, Urine; details: in vivo, po
Rattus norvegicus [6] = assay: Total electrolytic excretion of sodium in urine of rats after peroral administration of 3.76 uM/Kg of drug; assay type: ADME, organism-based; details: in vivo, po
Canis familiaris [7] = assay: Ratio of Total electrolytic excretion of sodium and potassium in urine of dogs after peroral administration of 113 uM/Kg of drug; assay type: ADME, organism-based, Canis lupus familiaris; details: dog, in vivo, po
Rattus norvegicus [8] = assay: Total electrolytic excretion of chlorine in urine of rats after peroral administration of 0 uM/Kg of drug; assay type: ADME, organism-based; details: in vivo, po
Rattus norvegicus [9] = assay: Total electrolytic excretion of chlorine in urine of rats after peroral administration of 1.13 uM/Kg of drug; assay type: ADME, organism-based; details: in vivo, po
Rattus norvegicus [10] = assay: Total electrolytic excretion of sodium in urine of rats after peroral administration of 0 uM/Kg of drug; assay type: ADME, organism-based; details: in vivo, po
Rattus norvegicus [11] = assay: Total electrolytic excretion of potassium in urine of rats after peroral administration of 113 uM/Kg of drug; assay type: ADME, organism-based; details: in vivo, po
Rattus norvegicus [12] = assay: Total electrolytic excretion of potassium in urine of rats after peroral administration of 0 uM/Kg of drug; assay type: ADME, organism-based; details: in vivo, po
Rattus norvegicus [13] = assay: Total electrolytic excretion of chlorine in urine of rats after peroral administration of 113 uM/Kg of drug; assay type: ADME, organism-based; details: in vivo, po
Canis familiaris [14] = assay: Total electrolytic excretion of potassium in urine of dogs after peroral administration of 3.76 uM/Kg of drug; assay type: ADME, organism-based, Canis lupus familiaris; details: dog, in vivo, po
Rattus norvegicus [15] = assay: Tested for the diuretic activity by measuring the urinary volume after peroral administering 0 uM/Kg of drug in rats; assay type: ADME, organism-based, Urine; details: in vivo, po
Canis familiaris [16] = assay: Ratio of Total electrolytic excretion of sodium and potassium in urine of dogs after peroral administration of 0 uM/Kg of drug; assay type: ADME, organism-based, Canis lupus familiaris; details: dog, in vivo, po
Rattus norvegicus [17] = assay: Total electrolytic excretion of sodium in urine of rats after peroral administration of 11.3 uM/Kg of drug; assay type: ADME, organism-based; details: in vivo, po
Rattus norvegicus [18] = assay: Tested for the diuretic activity by measuring the urinary volume after peroral administering 11.3 uM/Kg of drug in rats; assay type: ADME, organism-based, Urine; details: in vivo, po
Rattus norvegicus [19] = assay: Total electrolytic excretion of sodium in urine of rats after peroral administration of 113 uM/Kg of drug; assay type: ADME, organism-based; details: in vivo, po
Rattus norvegicus [20] = assay: Total electrolytic excretion of chlorine in urine of rats after peroral administration of 37.6 uM/Kg of drug; assay type: ADME, organism-based; details: in vivo, po
Rattus norvegicus [21] = assay: Tested for the diuretic activity by measuring the urinary volume after peroral administering 3.76 uM/Kg of drug in rats; assay type: ADME, organism-based, Urine; details: in vivo, po
Rattus norvegicus [22] = assay: Total electrolytic excretion of potassium in urine of rats after peroral administration of 3.76 uM/Kg of drug; assay type: ADME, organism-based; details: in vivo, po
Canis familiaris [23] = assay: Ratio of Total electrolytic excretion of sodium and potassium in urine of dogs after peroral administration of 37.6 uM/Kg of drug; assay type: ADME, organism-based, Canis lupus familiaris; details: dog, in vivo, po
Canis familiaris [24] = assay: Tested for the diuretic activity by measuring the urinary volume after peroral administering 3.76 uM/Kg of drug in dogs; assay type: ADME, organism-based, Canis lupus familiaris, Urine; details: dog, in vivo, po
Rattus norvegicus [25] = assay: Total electrolytic excretion of chlorine in urine of rats after peroral administration of 3.76 uM/Kg of drug; assay type: ADME, organism-based; details: in vivo, po
Rattus norvegicus [26] = assay: Total electrolytic excretion of chlorine in urine of rats after peroral administration of 11.3 uM/Kg of drug; assay type: ADME, organism-based; details: in vivo, po
Rattus norvegicus [27] = assay: Total electrolytic excretion of potassium in urine of rats after peroral administration of 37.6 uM/Kg of drug; assay type: ADME, organism-based; details: in vivo, po
Canis familiaris [28] = assay: Total electrolytic excretion of sodium in urine of dogs after peroral administration of 3.76 uM/Kg of drug; assay type: ADME, organism-based, Canis lupus familiaris; details: dog, in vivo, po
Rattus norvegicus [29] = assay: Tested for the diuretic activity by measuring the urinary volume after peroral administering 1.13 uM/Kg of drug in rats; assay type: ADME, organism-based, Urine; details: in vivo, po
Rattus norvegicus [30] = assay: Total electrolytic excretion of potassium in urine of rats after peroral administration of 1.13 uM/Kg of drug; assay type: ADME, organism-based; details: in vivo, po
Rattus norvegicus [31] = assay: Tested for the diuretic activity by measuring the urinary volume after peroral administering 37.6 uM/Kg of drug in rats; assay type: ADME, organism-based, Urine; details: in vivo, po
Rattus norvegicus [32] = assay: Total electrolytic excretion of sodium in urine of rats after peroral administration of 37.6 uM/Kg of drug; assay type: ADME, organism-based; details: in vivo, po
Canis familiaris [33] = assay: Ratio of Total electrolytic excretion of sodium and potassium in urine of dogs after peroral administration of 11.3 uM/Kg of drug; assay type: ADME, organism-based, Canis lupus familiaris; details: dog, in vivo, po
Rattus norvegicus [34] = assay: Tested for the diuretic activity by measuring the urinary volume after peroral administering 77.5 uM/Kg of drug in rats; assay type: ADME, organism-based, Urine; details: in vivo, po
Rattus norvegicus [35] = assay: Total electrolytic excretion of chlorine in urine of rats after peroral administration of 25.9 uM/Kg of drug; assay type: ADME, organism-based; details: in vivo, po
Rattus norvegicus [36] = assay: Total electrolytic excretion of chlorine in urine of rats after peroral administration of 259 uM/Kg of drug; assay type: ADME, organism-based; details: in vivo, po
Rattus norvegicus [37] = assay: Total electrolytic excretion of sodium in urine of rats after peroral administration of 259 uM/Kg of drug; assay type: ADME, organism-based; details: in vivo, po
Rattus norvegicus [38] = assay: Total electrolytic excretion of potassium in urine of rats after peroral administration of 259 uM/Kg of drug; assay type: ADME, organism-based; details: in vivo, po
Rattus norvegicus [39] = assay: Tested for the diuretic activity by measuring the urinary volume after peroral administering 25.9 uM/Kg of drug in rats; assay type: ADME, organism-based, Urine; details: in vivo, po
Rattus norvegicus [40] = assay: Total electrolytic excretion of sodium in urine of rats after peroral administration of 77.5 uM/Kg of drug; assay type: ADME, organism-based; details: in vivo, po
Rattus norvegicus [41] = assay: Total electrolytic excretion of potassium in urine of rats after peroral administration of 25.9 uM/Kg of drug; assay type: ADME, organism-based; details: in vivo, po
Rattus norvegicus [42] = assay: Total electrolytic excretion of chlorine in urine of rats after peroral administration of 77.5 uM/Kg of drug; assay type: ADME, organism-based; details: in vivo, po
Rattus norvegicus [43] = assay: Ratio of Total electrolytic excretion of sodium and potassium in urine of rats after peroral administration of 77.7 uM/Kg of drug; assay type: ADME, organism-based; details: in vivo, po
Rattus norvegicus [44] = assay: Ratio of Total electrolytic excretion of sodium and potassium in urine of rats after peroral administration of 25.9 uM/Kg of drug; assay type: ADME, organism-based; details: in vivo, po
Rattus norvegicus [45] = assay: Total electrolytic excretion of potassium in urine of rats after peroral administration of 77.5 uM/Kg of drug; assay type: ADME, organism-based; details: in vivo, po
Rattus norvegicus [46] = assay: Ratio of Total electrolytic excretion of sodium and potassium in urine of rats after peroral administration of 259 uM/Kg of drug; assay type: ADME, organism-based; details: in vivo, po
Rattus norvegicus [47] = assay: Total electrolytic excretion of sodium in urine of rats after peroral administration of 25.9 uM/Kg of drug; assay type: ADME, organism-based; details: in vivo, po
Rattus norvegicus [48] = assay: Tested for the diuretic activity by measuring the urinary volume after peroral administering 259 uM/Kg of drug in rats; assay type: ADME, organism-based, Urine; details: in vivo, po

## N=C(N)NC(=O)c1nc(Cl)c(N)nc1N [AMILORIDE]
Rattus norvegicus [1]
  Excretion Na+: 1.33 m equiv
Rattus norvegicus [2]
  Excretion K+: 0.07 m equiv
Canis familiaris [3]
  Excretion Cl-: 4.3 m equiv
Canis familiaris [4]
  Ratio: 7.8 [Na+]/[K+]
Rattus norvegicus [5]
  V: 9.4 mL
Rattus norvegicus [6]
  Excretion Na+: 1.65 m equiv
Canis familiaris [7]
  Ratio: 38.8 [Na+]/[K+]
Rattus norvegicus [8]
  Excretion Cl-: 0.78 m equiv
Rattus norvegicus [9]
  Excretion Cl-: 1.14 m equiv
Rattus norvegicus [10]
  Excretion Na+: 0.73 m equiv
Rattus norvegicus [11]
  Excretion K+: 0.05 m equiv
Rattus norvegicus [12]
  Excretion K+: 0.36 m equiv
Rattus norvegicus [13]
  Excretion Cl-: 1.43 m equiv
Canis familiaris [14]
  Excretion K+: 0.4 m equiv
Rattus norvegicus [15]
  V: 4.8 mL
Canis familiaris [16]
  Ratio: 2 [Na+]/[K+]
Rattus norvegicus [17]
  Excretion Na+: 2.17 m equiv
Rattus norvegicus [18]
  V: 12.6 mL
Rattus norvegicus [19]
  Excretion Na+: 1.77 m equiv
Rattus norvegicus [20]
  Excretion Cl-: 1.86 m equiv
Rattus norvegicus [21]
  V: 9.1 mL
Rattus norvegicus [22]
  Excretion K+: 0.1 m equiv
Canis familiaris [23]
  Ratio: 45.2 [Na+]/[K+]
Canis familiaris [24]
  V: 59 mL
Rattus norvegicus [25]
  Excretion Cl-: 1.29 m equiv
Rattus norvegicus [26]
  Excretion Cl-: 1.73 m equiv
Rattus norvegicus [27]
  Excretion K+: 0.05 m equiv
Canis familiaris [28]
  Excretion Na+: 9.5 m equiv
Rattus norvegicus [29]
  V: 7.2 mL
Rattus norvegicus [30]
  Excretion K+: 0.17 m equiv
Rattus norvegicus [31]
  V: 13.9 mL
Rattus norvegicus [32]
  Excretion Na+: 2.27 m equiv
Canis familiaris [33]
  Ratio: 30.8 [Na+]/[K+]

## C1CCCC(/N=C(/NC2CCCCCCC2)N2CCOCC2)CCC1
Rattus norvegicus [34]
  V: 11.8 mL
Rattus norvegicus [35]
  Excretion Cl-: 1.5 m equiv
Rattus norvegicus [36]
  Excretion Cl-: 1.05 m equiv
Rattus norvegicus [37]
  Excretion Na+: 1.17 m equiv
Rattus norvegicus [38]
  Excretion K+: 0.16 m equiv
Rattus norvegicus [39]
  V: 8.7 mL
Rattus norvegicus [40]
  Excretion Na+: 1.89 m equiv
Rattus norvegicus [41]
  Excretion K+: 0.26 m equiv
Rattus norvegicus [42]
  Excretion Cl-: 1.99 m equiv
Rattus norvegicus [43]
  Ratio: 7.1
Rattus norvegicus [44]
  Ratio: 5.5
Rattus norvegicus [45]
  Excretion K+: 0.27 m equiv
Rattus norvegicus [46]
  Ratio: 7.5
Rattus norvegicus [47]
  Excretion Na+: 1.45 m equiv
Rattus norvegicus [48]
  V: 5 mL
